Test results published in article doi:10.1101/2020.08.05.237982v3, “ThermoBRET: a ligand-engagement nanoscale thermostability assay applied to GPCRs” (biorxiv, 2023).

Target: T1, CB2 (Nluc-CB2, tsNluc-CB2) (Homo sapiens, UniProt P34972)
T1 construct: gene CNR2; N-terminal cleaved signal peptide, TwinStrep tag and Nluc or tsNluc
Type: binding
Conditions: Nluc-CB2, 20 µM ligand, DDM/CHAPSO/CHS

T1 sequence (P34972 whole entry): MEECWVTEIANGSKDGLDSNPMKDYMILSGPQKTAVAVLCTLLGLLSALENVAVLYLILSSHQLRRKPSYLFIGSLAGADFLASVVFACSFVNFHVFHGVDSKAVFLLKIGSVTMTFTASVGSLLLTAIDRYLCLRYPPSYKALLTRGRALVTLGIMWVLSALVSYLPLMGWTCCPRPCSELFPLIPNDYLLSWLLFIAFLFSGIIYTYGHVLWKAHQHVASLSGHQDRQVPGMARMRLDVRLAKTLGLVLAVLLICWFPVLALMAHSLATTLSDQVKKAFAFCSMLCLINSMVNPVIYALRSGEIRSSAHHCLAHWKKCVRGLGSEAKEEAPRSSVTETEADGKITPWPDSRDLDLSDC

CCCCCCC(C)(C)c1cc(OC)c([C@@H]2C=C(CO)[C@@H]3C[C@H]2C3(C)C)c(OC)c1 [HU308]
dTm: HU308 and SR144528 also produced appreciable increases in thermostability

Cc1ccc(Cn2nc(C(=O)N[C@@H]3C(C)(C)[C@@H]4CC[C@@]3(C)C4)cc2-c2ccc(Cl)c(C)c2)cc1 [SR144528]
dTm: HU308 and SR144528 also produced appreciable increases in thermostability
